Assay: Solubility of precipitated copper glycerolate
Details: suspended in water, pH reduced with sulphuric acid

pH at which the suspended precipitate re-dissolved: around 4
Substance: copper (II) glycerolate [copper glycerolate]

— patent US9420795B2, “Glycolate formulation for preserving wood and like materials” (Matterworks One Limited, priority 2011, dated 2016)
